From patent US20180217131A1, “Novel Cell Based Assay” (Medical Diagnostic Laboratories, LLC, priority 2017, published 2018)
Numbering of substitutions follows the chain as printed.

How the values were obtained:
Assay type in all cases: cell-based
[1] = biological target: T1, aromatase (wild-type CYP19A1) (Homo sapiens, UniProt P11511); experiment: Aromatase reporter assay, 3×ERE-luc clone #4 cells transfected with expression constructs of estrogen receptor and aromatase; conditions: 24 hours; for testosterone-induced luciferase reporter activity in the presence of aromatase inhibitor: clone #4, testosterone with or without inhibitor
T1 construct: expressed in transfected cells; host or cells: HEK 293-derived 3xERE-luc clone #4 (co-transfected with ESR1) or clone #1 (stably expressing wild-type ESR1)
T1 sequence (P11511 1-503): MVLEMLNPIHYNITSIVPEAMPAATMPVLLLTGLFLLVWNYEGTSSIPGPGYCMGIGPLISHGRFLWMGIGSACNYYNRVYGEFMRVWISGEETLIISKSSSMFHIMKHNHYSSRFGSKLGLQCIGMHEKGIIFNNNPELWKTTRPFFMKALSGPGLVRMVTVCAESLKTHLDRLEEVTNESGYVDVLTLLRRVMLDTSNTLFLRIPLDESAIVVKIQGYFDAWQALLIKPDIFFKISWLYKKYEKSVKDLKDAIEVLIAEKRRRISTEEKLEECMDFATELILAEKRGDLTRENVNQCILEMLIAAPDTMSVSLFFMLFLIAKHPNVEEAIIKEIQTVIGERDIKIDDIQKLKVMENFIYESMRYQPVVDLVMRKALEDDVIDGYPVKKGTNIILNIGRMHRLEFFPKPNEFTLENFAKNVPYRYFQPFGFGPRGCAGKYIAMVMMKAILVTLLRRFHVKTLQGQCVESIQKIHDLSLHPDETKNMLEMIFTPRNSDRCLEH
Procedure: A serial dilution of testosterone was added to the cells for 24 hours. The luciferase reporter activity was measured.
The transfected cells were treated with testosterone in the presence or absence of aromatase inhibitors, anastrozole and letrozole, for 24 hours (FIG. 31).

[2] = biological target: T2, R192H mutant of aromatase (CYP19A1) (Homo sapiens, UniProt P11511, R192H); experiment: Aromatase reporter assay with R192H mutant of CYP19A1
T2 construct: expressed in transfected cells; host or cells: HEK 293-derived reporter cells (clone #4 with ESR1 co-transfected; clone #1 stably expressing ESR1)
T2 sequence (P11511 1-503 R192H): T1 sequence (P11511 1-503) with R192H
Procedure: (§1) The transfected cells were treated with a serial dilution of testosterone. The luciferase reporter activity was measured 24 hours post-transfection.
R192H corresponds to a missense mutation of CYP19A1, which changed arginine (R) into histidine (H) at amino acid position of 192. In order to functionally characterize this mutation, PCR-mediated overlapping extension was employed to construct linear expression cassette of aromatase carrying this mutation. We first transfected the linear expression cassette of either wild-type aromatase or mutant aromatase DNA into the reporter cells followed by treatment with testosterone and its inhibitors using “all-in-one” method. The luciferase reporter activity was measured 24 hours post-transfection.
We used the formula as illustrated in the above-mentioned example to calculate the activity of aromatase.

[3] = biological target: T3, R435C mutant of aromatase (CYP19A1) (Homo sapiens, UniProt P11511, R435C); experiment: Aromatase reporter assay with R435C mutant of CYP19A1
T3 construct: expressed in transfected cells; host or cells: HEK 293-derived reporter cells (clone #4 with ESR1 co-transfected; clone #1 stably expressing ESR1)
T3 sequence (P11511 1-503 R435C): T1 sequence (P11511 1-503) with R435C
Procedure: as §1
R435C corresponds to a missense mutation of CYP19A1, which changed arginine (R) into cysteine (C) at amino acid position of 435. In order to functionally characterize this mutation, PCR-mediated overlapping extension was employed to construct linear expression cassette of aromatase carrying this mutation. We first transfected the linear expression cassette of either wild-type aromatase or mutant aromatase DNA into the reporter cells followed by treatment with testosterone and its inhibitors using “all-in-one” method. The luciferase reporter activity was measured 24 hours post-transfection.

[4] = biological target: T1, aromatase (wild-type CYP19A1); experiment: Aromatase reporter assay, clone #1 cells (stable 3×ERE-Luc and wild-type ESR1) transfected with linear expression cassette of wild-type CYP19A1
Procedure: The luciferase reporter activity was measured 24 hours post-transfection.

## CC(C)(C#N)c1cc(Cn2cncn2)cc(C(C)(C)C#N)c1 [anastrozole]
[1]
  testosterone-induced luciferase reporter activity in the presence of aromatase inhibitor: reduced

## N#Cc1ccc(C(c2ccc(C#N)cc2)n2cncn2)cc1 [letrozole]
[1]
  testosterone-induced luciferase reporter activity in the presence of aromatase inhibitor: reduced

## C[C@]12CC[C@H]3[C@@H](CCC4=CC(=O)CC[C@@]43C)[C@@H]1CC[C@@H]2O [testosterone]
[1]; clone #4, estrogen receptor and aromatase constructs, serial dilution of testosterone
  luciferase activity upon treatment of testosterone: dose dependent activation of luciferase activity was observed
[2]; clone #1, linear expression cassette of R192H, all-in-one method
  luciferase activity upon treatment of testosterone, compared to wild type: reduced luciferase activity was observed
[2]; clone #4, expression constructs of estrogen receptor and R192H aromatase, serial dilution of testosterone
  luciferase reporter activity upon testosterone, compared to wild type: reduced luciferase reporter activity
[3]; clone #1, linear expression cassette of R435C, all-in-one method
  luciferase activity upon treatment of testosterone: no increase in luciferase activity was observed
[3]; clone #4, expression constructs of estrogen receptor and R435C aromatase
  induction of luciferase reporter activity upon testosterone exposure: no induction of luciferase reporter activity
[4]; clone #1, 25 ng or 50 ng aromatase linear DNA, testosterone for 6 hours
  luciferase reporter activity upon addition of testosterone: responded to testosterone in a dose-dependent manner
[4]; clone #1, 50 ng linear cassette, testosterone for 24 hours, 1 pM
  reporter signal at 1 pM of testosterone: robust reporter signal was detected
